This passage reports IC50 results from patent US20250304549A1, “HYDROXYAMIDE DERIVATIVE AND USE THEREOF” (SICHUAN HUIYU PHARMACEUTICAL CO., LTD., priority 2022, published 2025).

The target in one test is HDAC1 (Homo sapiens (Human), UniProt Q13547). Nature of the test: In vitro enzyme inhibition assay - HDAC (HDAC-Glo I/II), HDAC1. The test is classed as biochemical. As to conditions: read-out: HDAC IC50 (nM) HDAC 1. As to the method: 2. In Vitro Enzyme Inhibition Assay—HDAC
The effect of the compound on the enzymatic activity of pan-HDAC and two isoforms (HDAC1 and HDAC8) was examined using the HDAC-Glo I/II Assay and Screening System assay to assess the level of inhibition of HDAC protease activity and selectivity in each isoform. The proteins and detection reagents were from the HDAC-Glo™ I/II Assay and Screening System (Promega). A 1 mM stock solution of the compound was prepared in DMSO and diluted in a 5-fold gradient to create a series of 8 concentrations, and a specific volume of the highest concentration was diluted 25 times with HDAC Buffer to obtain 4× working solution of the compound. […] The 384-well plate was then read on a multifunctional microplate reader, with the Luminescence channel selected to record Luminescence values (RLU). The inhibition rate was calculated using the following formula: […]
Note: ‘Negative’ refers to the group without the inhibitor; ‘Blank’ refers to the group without the enzyme.
The IC50 value was calculated by fitting the inhibition rate by GraphPad Prism software, employing log (inhibitor) vs. response-Variable Slope (four parameters) model.

The test system of a further test is NCI-H1417 cells. The test can be described thus: In vitro cell inhibition assay - H1417 cell proliferation (CellTiter-Glo). The test is classed as cell-based. In outline:
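Cells exposed to 8 compound concentrations (5-fold dilutions) in BEGM with 10% FBS for 7 days at 37° C., 5% CO2. Viable cells measured by CellTiter-Glo luminescence; inhibition versus no-inhibitor and no-cell controls, IC50 fitted.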

The next test deals with HDAC8 (Homo sapiens (Human), UniProt Q9BY41). The test can be described thus: In vitro enzyme inhibition assay - HDAC (HDAC-Glo I/II), HDAC8. The test is classed as biochemical. Particulars: read-out: HDAC IC50 (nM) HDAC 8. In outline: (§1)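 Eight compound concentrations (5-fold gradient; 1 mM DMSO stock) were assayed by HDAC-Glo I/II luminescence. IC50 was obtained by four-parameter fitting.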
Sequence of HDAC8 (Q9BY41 whole entry): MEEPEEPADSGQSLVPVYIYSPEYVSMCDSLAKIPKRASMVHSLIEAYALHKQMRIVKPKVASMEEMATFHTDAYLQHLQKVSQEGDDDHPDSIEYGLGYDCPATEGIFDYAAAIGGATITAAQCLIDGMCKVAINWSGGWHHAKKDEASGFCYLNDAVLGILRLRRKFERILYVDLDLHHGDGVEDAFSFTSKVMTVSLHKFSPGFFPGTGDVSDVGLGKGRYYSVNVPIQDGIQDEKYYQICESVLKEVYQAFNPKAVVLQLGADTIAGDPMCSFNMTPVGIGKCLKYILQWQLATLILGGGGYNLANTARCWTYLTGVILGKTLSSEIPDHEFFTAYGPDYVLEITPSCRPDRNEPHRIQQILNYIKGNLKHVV

Another test addresses pan-HDAC. The test can be described thus: In vitro enzyme inhibition assay - HDAC (HDAC-Glo I/II), pan-HDAC. It counts as biochemical. The procedure, abridged:
as §1

The target of the next test is LSD1 (Homo sapiens (Human), UniProt O60341). The test can be described thus: In vitro enzyme inhibition assay - LSD1 (HTRF). It counts as biochemical. A general note: Time-resolved FRET reads energy transfer from a long-lived donor to a nearby acceptor.
The next test concerns NCI-H69 cells. Nature of the test: In vitro cell inhibition assay - NCI-H69 cell proliferation (CellTiter-Glo). The test is classed as cell-based. In outline: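 Cells seeded at 1×10^3 per well and incubated overnight at 37° C., 5% CO2, then treated with 8-point 5-fold compound dilutions in RPMI-640 with 20% FBS for 7 days. Viable cells measured by CellTiter-Glo luminescence; IC50 fitted from inhibition relative to no-inhibitor and no-cell controls.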

For a further test, the system named is DU145 cells. The test can be described thus: In vitro cell inhibition assay - DU145 cell proliferation (CellTiter-Glo). It counts as cell-based. The procedure, abridged:
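Viability read-out was CellTiter-Glo luminescence after a 6-day, 37° C exposure of DU145 cells (1×10^3/well, 10% FBS RPMI-640) to 8 compound concentrations in 5-fold steps.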
On the technique in general: In ATP-based viability assays light output follows the ATP content of the culture.

The test system of a further test is NCI-H526 cells. The test can be described thus: In vitro cell inhibition assay - NCI-H526 cell proliferation (CellTiter-Glo). It counts as cell-based. As to conditions: H526 small cell lung cancer cell proliferation, 5 days. The procedure, abridged:
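NCI-H526 cells plated at 1×10^3 per well overnight, then treated with 8 concentrations (5-fold dilutions) in RPMI-640 with 10% FBS for 5 days at 37° C., 5% CO2. Viable cells quantified by CellTiter-Glo luminescence; IC50 fitted from inhibition rates relative to no-inhibitor and no-cell controls.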

Setting [1] is: Homo sapiens, NCI-H1417, H1417 small cell lung cancer cell proliferation.
Setting [2] is: H1417 small cell lung cancer cell proliferation.
Where [3] appears, read: Homo sapiens, NCI-H69, H69 small cell lung cancer cell proliferation.
Where [4] appears, read: Homo sapiens, DU-145, Du145 prostate cancer cell proliferation.
Where [5] appears, read: H69 small cell lung cancer cell proliferation.
Where [6] appears, read: Du145 prostate cancer cell proliferation.

Each structure is given as a SMILES string. Where a name gives a salt, the structure may show the parent alone.

Sequence of HDAC1 (Q13547 whole entry, canonical isoform): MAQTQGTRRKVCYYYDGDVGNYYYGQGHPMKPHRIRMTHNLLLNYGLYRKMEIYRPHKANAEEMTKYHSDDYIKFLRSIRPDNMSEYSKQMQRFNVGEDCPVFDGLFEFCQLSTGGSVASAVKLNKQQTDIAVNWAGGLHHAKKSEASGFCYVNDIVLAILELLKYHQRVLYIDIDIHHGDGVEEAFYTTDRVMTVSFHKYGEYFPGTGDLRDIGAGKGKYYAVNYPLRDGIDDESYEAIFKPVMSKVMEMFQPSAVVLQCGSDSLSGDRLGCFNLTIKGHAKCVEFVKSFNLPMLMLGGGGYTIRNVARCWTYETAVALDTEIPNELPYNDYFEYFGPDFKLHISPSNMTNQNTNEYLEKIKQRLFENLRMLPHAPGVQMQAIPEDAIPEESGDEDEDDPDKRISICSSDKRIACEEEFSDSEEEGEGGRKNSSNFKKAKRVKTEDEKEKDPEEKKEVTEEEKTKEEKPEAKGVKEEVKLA

In the case of `COc1ccc(-c2c(OCCCCCCC(=O)NO)cc(N3CCC(N)CC3)nc2-c2ccc(C#N)c(F)c2)cc1O` [Example 1, 7-((6-(4-aminopiperidin-1-yl)-2-(4-cyano-3-fluorophenyl)-3-(3-hydroxy-4-methoxyphenyl)pyridin-4-yl)oxy)-N-hydroxyheptanamide hydrochloride], the IC50 on HDAC1 is 68.1 nM; in the test with NCI-H1417 cells (setting [1]), 216 nM; on HDAC8, 215 nM; against pan-HDAC, 17.5 nM.
As to `COc1ccc(-c2c(-c3ccc(C#N)c(F)c3)nc(N3CCC(N)CC3)n3ccnc23)cc1OCCCCCCC(=O)NO` [Example 20, 7-(5-(5-(4-aminopiperidin-1-yl)-7-(4-cyano-3-fluorophenyl)imidazo[1,2-c]pyrimidin-8-yl)-2-methoxyphenoxy)-N-hydroxyheptanamide hydrochloride], the IC50 at HDAC1 was 311 nM; with NCI-H1417 cells (setting [1]), 845 nM; on HDAC8, 446 nM; on LSD1 it was 16.9 nM; on pan-HDAC, 96.5 nM.
The corresponding values for `N#Cc1ccc(-c2nc(N3CCC(N)CC3)n3ccnc3c2-c2ccc(OCCCCCCC(=O)NO)c(O)c2)cc1F` [Example 21, 7-(4-(5-(4-Aminopiperidin-1-yl)-7-(4-cyano-3-fluorophenyl)imidazo[1,2-c]pyrimidin-8-yl)-2-hydroxyphenoxy)-N-hydroxyheptanamide hydrochloride] are 400 nM, 65 nM, 275 nM, 0.05 nM and 119 nM.
The corresponding values for `CNC1CCN(c2ncc(-c3ccc(OCCCCCCC(=O)NO)c(O)c3)c(-c3ccc(C#N)c(F)c3)c2C#N)CC1` [Example 24, 7-(4-(5-cyano-4-(4-cyano-3-fluorophenyl)-6-(4-(methylamino)piperidin-1-yl)pyridin-3-yl)-2-hydroxyphenoxy)-N-hydroxyheptanamide hydrochloride] are 8.28 nM, 42.3 nM, 118 nM, 0.41 nM and 5.83 nM.
The corresponding values for `COc1cc(N2CCC(N)CC2)nc(-c2ccc(C#N)c(F)c2)c1-c1ccc(/C=C/C(=O)NO)c(O)c1` [Example 28, (E)-3-(4-(6-(4-Amino-piperidin-1-yl)-2-(4-cyano-3-fluorophenyl)-4-methoxypyridin-3-yl)-2-hydroxyphenyl)-N-hydroxyacrylamide formate] are 608 nM, 25.5 nM, 2330 nM, 0.64 nM and 270 nM.
As for `Cc1ccc(-c2c(-c3ccc(C#N)c(F)c3)nc(N3CCC(NCCCCCCC(=O)NO)CC3)n3ccnc23)cc1O` [Example 34, 7-(1-(7-(4-cyano-3-fluorophenyl)-8-(3-hydroxy-4-methylphenyl)imidazo[1,2-c]pyrimidin-5-yl)piperidin-4-yl)amino)-N-hydroxyheptanamide Hydrochloride], the IC50 at HDAC1 stood at 1060 nM; with NCI-H1417 cells (setting [2]), 140 nM; on HDAC8, 353 nM; against LSD1 it was 1.13 nM; on pan-HDAC, 552 nM.
As for `COc1ccc(-c2cnc(N3CCC(NCc4ccc(/C=C/C(=O)NO)cc4)CC3)cc2-c2ccc(C#N)c(F)c2)cc1O` [Example 80, (E)-3-(4-(((1-(4-(4-cyano-3-fluorophenyl)-5-(3-hydroxy-4-methoxyphenyl)pyridin-2-yl)piperidin-4-yl)amino)methyl)phenyl)-N-hydroxyacrylamide formate], the IC50 in the test on NCI-H69 cells (setting [3]) was 27.8 nM; in the test on DU145 cells (setting [4]), 56.5 nM; with NCI-H1417 cells (setting [1]), 14 nM; in the test on NCI-H526 cells (Homo sapiens, NCI-H526, 120 h), 29.3 nM; at HDAC8 it was 165 nM; against pan-HDAC it was 14.9 nM.
With `COc1ccc(-c2ccc(N3CCC(NCc4ccc(/C=C/C(=O)NO)cc4)CC3)c(C#N)c2-c2ccc(C#N)c(F)c2)cc1O` [Example 84, (E)-3-(4-(((1-(3′,4″-dicyano-3″-fluoro-3-hydroxy-4-methoxy-[1,1′:2′,1″-terphenyl]-4′-yl)piperidin-4-yl)amino)methyl)phenyl)-N-hydroxyacrylamide], the IC50 with NCI-H69 cells (setting [3]) is 32.9 nM; in the test on DU145 cells (setting [4]) it was 116 nM; with NCI-H1417 cells (setting [1]), 4 nM; with NCI-H526 cells (Homo sapiens, NCI-H526, 120 h), 68.4 nM; at HDAC8, 73.6 nM; against LSD1 it was 0.62 nM. The compound also showed an IC50 against pan-HDAC of 5.45 nM.
As to `COc1cc(-c2cnc(N3CCC(NCc4cnc(/C=C/C(=O)NO)nc4)CC3)c(C#N)c2-c2ccc(C#N)c(F)c2)ccc1O` [Example 96, (E)-3-(5-((1-(3-Cyano-4-(4-cyano-3-fluorophenyl)-5-(4-hydroxy-3-methoxyphenyl)pyridin-2-yl)piperidin-4-yl)amino)methyl) pyrimidin-2-yl)-N-hydroxyacrylamide formate], the IC50 is 101 nM in the test with NCI-H69 cells (setting [3]); 149 nM in the test on DU145 cells (setting [4]); 74.2 nM in the test on NCI-H1417 cells (setting [1]); 108 nM in the test with NCI-H526 cells (Homo sapiens, NCI-H526, 120 h); 16.3 nM on HDAC8; 39.9 nM against LSD1. At pan-HDAC, this compound came in with an IC50 of 16.4 nM.
Turning to `COc1ccc(-c2cnc(N3CCC(NCc4ccc(/C=C/C(=O)NO)nc4)CC3)c(C#N)c2-c2ccc(C#N)c(F)c2)cc1O` [Example 117, (E)-3-(5-((1-(3-Cyano-4-(4-cyano-3-fluorophenyl)-5-(3-hydroxy-4-methoxyphenyl)pyridin-2-yl)piperidin-4-yl)amino)methyl) pyridin-2-yl)-N-hydroxyacrylamide formate], the IC50 in the test on NCI-H69 cells (setting [5]) came out at 4.21 nM; with DU145 cells (setting [6]) it was 10.4 nM; in the test on NCI-H1417 cells (setting [2]), 1.7 nM; in the test with NCI-H526 cells it was 4.54 nM; at HDAC8, 13 nM; on LSD1, 0.36 nM. At pan-HDAC, the IC50 was 0.8 nM.
Turning to `COc1ncc(-c2cnc(N3CCC(NCc4ccc(/C=C/C(=O)NO)cc4)CC3)c(C#N)c2-c2ccc(C#N)c(F)c2)cc1O` [Example 123, (E)-3-(4-((1-(5-Cyano-4-(4-cyano-3-fluorophenyl)-5′-hydroxy-6′-methoxy-[3,3′-bipyridin]-6-yl)piperidin-4-yl)amino)methyl) phenyl)-N-hydroxyacrylamide trifluoroacetate], the IC50 came out at 76.3 nM in the test with NCI-H69 cells (setting [5]); 112 nM in the test on DU145 cells (setting [6]); 4.2 nM in the test on NCI-H1417 cells (setting [2]); 71.3 nM with NCI-H526 cells; 0.74 nM at LSD1.
On to `COc1ccc(-c2cnc(N3CCC(NCc4ccc5cc(C(=O)NO)sc5c4)CC3)c(C#N)c2-c2ccc(C#N)c(F)c2)cc1O` [Example 126, 6-(1-(3-Cyano-4-(4-cyano-3-fluorophenyl)-5-(3-hydroxy-4-methoxyphenyl)pyridin-2-yl)piperidin-4-yl)amino)methyl)-N-hydroxybenzothio phene-2-carboxamide formate], for which the IC50 is 284 nM in the test on NCI-H69 cells (setting [3]); 715 nM with DU145 cells (setting [4]); 1.76 nM in the test with NCI-H1417 cells (setting [1]); 280 nM with NCI-H526 cells (Homo sapiens, NCI-H526, 120 h); 132 nM on HDAC8; 1.11 nM against LSD1. On pan-HDAC, this compound showed a 50% inhibitory concentration (IC50) of 197 nM.
As to `N#Cc1ccc(-c2c(-c3ccc4cn[nH]c4c3)cnc(N3CCC(NCc4ccc(/C=C/C(=O)NO)cc4)CC3)c2C#N)cc1F` [Example 142, (E)-3-(4-(((1-(3-Cyano-4-(4-cyano-3-fluorophenyl)-5-(1H-indazol-6-yl)pyridin-2-yl)piperidin-4-yl)amino)methyl)phenyl)-N-hydroxyacrylamide formate], the IC50 in the test with NCI-H69 cells (setting [3]) amounted to 4.73 nM; in the test with DU145 cells (setting [4]) it was 4.24 nM; in the test with NCI-H1417 cells (setting [1]) it was 7.59 nM; with NCI-H526 cells (Homo sapiens, NCI-H526, 120 h), 4.61 nM; against LSD1 it was 1.8 nM.

As a reminder, the IC50 is the midpoint of a concentration-inhibition curve.
